{"source": "paper PMC11460631", "about": "“Inhibition of transient receptor potential vanilloid 3 channels by antimalarial hydroxychloroquine alleviates TRPV3-dependent dermatitis” (The Journal of Biological Chemistry, 2024)", "target": "T1, TRPV3 (Homo sapiens, UniProt Q8NET8)", "T1 construct": "YFP or GFP; expressed in transfected cells; host or cells: HEK293T", "T1 sequence (Q8NET8 1-790)": "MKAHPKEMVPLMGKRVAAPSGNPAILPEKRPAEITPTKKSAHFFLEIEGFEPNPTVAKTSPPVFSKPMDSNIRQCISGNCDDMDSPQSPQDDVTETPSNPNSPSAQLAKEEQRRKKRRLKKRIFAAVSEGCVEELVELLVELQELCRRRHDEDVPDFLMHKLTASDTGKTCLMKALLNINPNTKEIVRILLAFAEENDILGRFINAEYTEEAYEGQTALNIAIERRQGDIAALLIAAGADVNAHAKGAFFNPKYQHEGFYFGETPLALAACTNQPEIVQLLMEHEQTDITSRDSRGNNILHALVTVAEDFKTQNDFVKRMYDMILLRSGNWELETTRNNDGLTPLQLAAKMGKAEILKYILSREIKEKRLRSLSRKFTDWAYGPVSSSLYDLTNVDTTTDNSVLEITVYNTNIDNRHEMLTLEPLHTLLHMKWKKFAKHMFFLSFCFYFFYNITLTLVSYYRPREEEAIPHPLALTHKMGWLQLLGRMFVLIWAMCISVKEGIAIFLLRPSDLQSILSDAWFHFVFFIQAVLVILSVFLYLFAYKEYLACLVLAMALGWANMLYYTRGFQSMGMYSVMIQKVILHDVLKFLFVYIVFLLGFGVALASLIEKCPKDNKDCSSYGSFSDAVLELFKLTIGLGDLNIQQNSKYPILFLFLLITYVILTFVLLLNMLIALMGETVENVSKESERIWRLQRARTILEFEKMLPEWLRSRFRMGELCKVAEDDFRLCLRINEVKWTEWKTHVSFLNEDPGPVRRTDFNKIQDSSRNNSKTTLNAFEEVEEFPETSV", "test": "Calcium imaging (Fluo-4/AM) of TRPV3-expressing HEK293T cells", "assay_type": "cell-based", "description": "HEK293T cells are cultured using Dulbecco's modified Eagle's medium containing 10% fetal bovine serum and 1% penicillin-streptomycin in a cell incubator with 5% CO2 at 37 °C. Plasmids of murine TRPV1, TRPV4, TRPM8, and human TRPV3, TRPA1 are labeled with YFP or GFP as indicators for subsequent electrophysiological recordings. Complementary DNA constructs of ion channels were transiently transfected with Lipofectamine 3000 (Invitrogen). And 12 to 18 h after transient transfection, electrophysiological recordings were performed.\nCalcium imaging assays were performed as described previously ([37]). Transiently transfected HEK293 cells seeded on 25 mm coverslips were washed twice with an extracellular solution containing 140 mM NaCl, 5 mM KCl, 2 mM MgCl2, 2 mM CaCl2, 10 mM glucose, and 10 mM Hepes (pH 7.4), followed by incubation in 2 ml of extracellular solution supplemented with 2 μM Fluo-4/AM as a Molecular Probes at room temperature for 60 min. Fluorescence images of HEK293T cells were acquired with a Nikon Eclipse Ti2 microscope with an optiMOS charge-coupled device camera controlled by the Ocular Software ([…]; https://www.photometrics.com/products/ocular).", "data": [{"compound": "CCN(CCO)CCCC(C)Nc1ccnc2cc(Cl)ccc12", "note": "(centres unmarked) [HCQ, hydroxychloroquine]", "values": [{"measurement": "calcium influx, area under the curve (AUC)", "setting": "100 μM HCQ mixed with 1 mM 2-APB", "result": "8.65 ± 0.83"}, {"measurement": "calcium influx, area under the curve (AUC)", "setting": "300 μM HCQ mixed with 1 mM 2-APB", "result": "0.28 ± 0.05"}]}]}
